Source: ChEMBL document CHEMBL5096230 (J Med Chem, 2022)

Legend:
Format in all cases: organism-based
Settings in all cases: in vivo, 120 h, time 5 day
[1] = Toxicity in BALB/c mouse at 50 mg/kg, iv administered daily for 5 days
[2] = Toxicity in BALB/c mouse assessed as animal death at 8 mg/kg, iv administered daily for 5 days and measured after 2 dose
[3] = Toxicity in BALB/c mouse assessed as lethargy at 8 mg/kg, iv administered daily for 5 days

SMILES	Activity [1]	Activity [2]	Activity [3]
CC(C)C[C@H](NC(=O)[C@H](Cc1ccc(N)cc1)NC(=O)CN1CCNCC1)C(=O)N[C@@H](C)C(=O)N[C@@H](Cc1ccc(-c2ccccc2C(F)(F)F)cc1)C(=O)N1CCC[C@H]1C(=O)N[C@@H](CC(=O)O)C(=O)N[C@@H](C)C(=O)N[C@H](C(=O)N1CCC[C@H]1C(=O)N[C@@H](Cc1ccccc1)C(=O)N[C@@H](CCCNC(=N)N)C(=O)N1CCC[C@H]1C(=O)NCC(=O)NCCCC[C@H](NC(=O)CNC(=O)[C@@H]1CCCN1C(=O)[C@H](CCCNC(=N)N)NC(=O)[C@H](Cc1ccccc1)NC(=O)[C@@H]1CCCN1C(=O)[C@@H](NC(=O)[C@H](C)NC(=O)[C@H](CC(=O)O)NC(=O)[C@@H]1CCCN1C(=O)[C@H](Cc1ccc(-c2ccccc2C(F)(F)F)cc1)NC(=O)[C@H](C)NC(=O)[C@H](CC(C)C)NC(=O)[C@H](Cc1ccc(N)cc1)NC(=O)CN1CCNCC1)C1CCCCC1)C(=O)NCC(=O)N[C@@H](CCCCNC(=O)CCCc1cn(CCCCCC(=O)O)nn1)C(N)=O)C1CCCCC1	Non-Toxic	–	–
CC(=O)O[C@H]1C(=O)[C@@]2(C)[C@H]([C@H](OC(=O)c3ccccc3)[C@]3(O)C[C@H](OC(=O)[C@H](OC(=O)CCCCCn4cc(CCCC(=O)NCCCC[C@H](NC(=O)CNC(=O)[C@H](CCCCNC(=O)CNC(=O)[C@@H]5CCCN5C(=O)[C@H](CCCNC(=N)N)NC(=O)[C@H](Cc5ccccc5)NC(=O)[C@@H]5CCCN5C(=O)[C@@H](NC(=O)[C@H](C)NC(=O)[C@H](CC(=O)O)NC(=O)[C@@H]5CCCN5C(=O)[C@H](Cc5ccc(-c6ccccc6C(F)(F)F)cc5)NC(=O)[C@H](C)NC(=O)[C@H](CC(C)C)NC(=O)[C@H](Cc5ccc(N)cc5)NC(=O)CN5CCNCC5)C5CCCCC5)NC(=O)CNC(=O)[C@@H]5CCCN5C(=O)[C@H](CCCNC(=N)N)NC(=O)[C@H](Cc5ccccc5)NC(=O)[C@@H]5CCCN5C(=O)[C@@H](NC(=O)[C@H](C)NC(=O)[C@H](CC(=O)O)NC(=O)[C@@H]5CCCN5C(=O)[C@H](Cc5ccc(-c6ccccc6C(F)(F)F)cc5)NC(=O)[C@H](C)NC(=O)[C@H](CC(C)C)NC(=O)[C@H](Cc5ccc(N)cc5)NC(=O)CN5CCNCC5)C5CCCCC5)C(N)=O)nn4)[C@@H](NC(=O)c4ccccc4)c4ccccc4)C(C)=C1C3(C)C)[C@]1(OC(C)=O)CO[C@@H]1C[C@@H]2O	Non-Toxic	–	–
CC(=O)O[C@H]1C(=O)[C@@]2(C)[C@H]([C@H](OC(=O)c3ccccc3)[C@]3(O)C[C@H](OC(=O)[C@H](O)[C@@H](NC(=O)c4ccccc4)c4ccccc4)C(C)=C1C3(C)C)[C@]1(OC(C)=O)CO[C@@H]1C[C@@H]2O [PACLITAXEL]	–	Toxic	Toxic
